The target of experiment [1] is T1, Beta-galactoside alpha-2,6-sialyltransferase 1 (Homo sapiens) (UniProt P15907).
T1 sequence (whole entry): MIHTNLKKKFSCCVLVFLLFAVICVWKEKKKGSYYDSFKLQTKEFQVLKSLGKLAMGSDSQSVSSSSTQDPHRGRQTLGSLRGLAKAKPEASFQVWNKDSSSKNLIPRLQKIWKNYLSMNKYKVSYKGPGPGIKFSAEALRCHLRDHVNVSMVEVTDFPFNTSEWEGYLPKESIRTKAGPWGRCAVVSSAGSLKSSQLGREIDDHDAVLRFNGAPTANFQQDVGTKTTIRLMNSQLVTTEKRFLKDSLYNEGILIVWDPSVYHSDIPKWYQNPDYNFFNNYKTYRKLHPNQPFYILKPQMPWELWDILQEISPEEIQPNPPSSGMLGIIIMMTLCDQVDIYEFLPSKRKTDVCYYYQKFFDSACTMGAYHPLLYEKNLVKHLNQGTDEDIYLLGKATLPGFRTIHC
Kind of experiment: Inhibition of recombinant human N-terminal 6His-tagged ST6Gal-1 (Glu44 to Cys406 residues) assessed as CMP production at 10 uM using CMP-Neu5Ac as donar substrate and LacNAc as acceptor by CMP-Glo luminescence microplate reader assay relative to control.

Experiment [2] concerns the target T1, Beta-galactoside alpha-2,6-sialyltransferase 1 (Homo sapiens). The experiment in a line: Binding affinity to recombinant human N-terminal 6His-tagged ST6Gal-1 (Glu44 to Cys406 residues) assessed as Km/Ki ratio.

The inhibition is the share of the control response that was lost under treatment. With `O=C(NC[C@H]1O[C@@H](n2ccc(=O)[nH]c2=O)[C@H](O)[C@@H]1O)OC(c1csc2ccccc12)P(=O)(O)O` (stereo in doubt; 28l-(s)), in experiment [1], the inhibition came out at 5.9%.
Turning to `COc1ccc(C(OC(=O)NC[C@H]2O[C@@H](n3ccc(=O)[nH]c3=O)[C@H](O)[C@@H]2O)P(=O)(O)O)cc1OC1CCCC1` (stereo in doubt; 28h-(s)), in experiment [1], the inhibition was determined as 12.7%.
As for `O=C(NC[C@H]1O[C@@H](n2ccc(=O)[nH]c2=O)[C@H](O)[C@@H]1O)OC(c1ccccc1)P(=O)(O)O` (stereo in doubt; 28j-(l)), in experiment [1], the inhibition stood at 15.2%.
Still for that read-out and setting: for `CCCOc1cccc(C(OC(=O)NC[C@H]2O[C@@H](n3ccc(=O)[nH]c3=O)[C@H](O)[C@@H]2O)P(=O)(O)O)c1` (stereo in doubt; 28e-(s)) the value was 7.2%.
`O=C(NC[C@H]1O[C@@H](n2ccc(=O)[nH]c2=O)[C@H](O)[C@@H]1O)OC(c1cc2ccccc2s1)P(=O)(O)O` (stereo in doubt; 28k-(s)): in experiment [1], the inhibition is 66.4%. The Ratio in experiment [2] is 4.4.
For `O=C(NC[C@H]1O[C@@H](n2ccc(=O)[nH]c2=O)[C@H](O)[C@@H]1O)OC(c1ccccc1)P(=O)(O)O` (stereo in doubt; 28j-(s)), the inhibition in experiment [1] amounted to 7.1%.
Take `Nc1ccn([C@@H]2O[C@H](CNC(=O)OC(c3cccc(Oc4ccccc4)c3)P(=O)(O)O)[C@@H](O)[C@H]2O)c(=O)n1` (stereo in doubt; 30-(l)): in experiment [1], the inhibition was 6.3%.
With `COc1ccc(C(OC(=O)NC[C@H]2O[C@@H](n3ccc(=O)[nH]c3=O)[C@H](O)[C@@H]2O)P(=O)(O)O)cc1` (stereo in doubt; 28g-(s)), in experiment [1], the inhibition worked out at 18.1%.
For the compound `CCCOc1cccc(C(OC(=O)NC[C@H]2O[C@@H](n3ccc(=O)[nH]c3=O)[C@H](O)[C@@H]2O)P(=O)(O)O)c1` (stereo in doubt; 28e-(l)), in experiment [1], the inhibition turned out to be 30.9%. Further, the Ratio in experiment [2] was 1.8.
With `O=C(NC[C@H]1O[C@@H](n2ccc(=O)[nH]c2=O)[C@H](O)[C@@H]1O)OC(c1cccc(Oc2ccccc2)c1)P(=O)(O)O` (stereo in doubt; 28a-(s)), the inhibition in experiment [1] stood at 19.9%.
Consider `COc1cccc(C(OC(=O)NC[C@H]2O[C@@H](n3ccc(=O)[nH]c3=O)[C@H](O)[C@@H]2O)P(=O)(O)O)c1` (stereo in doubt; 28f-(l)), for which the inhibition in experiment [1] stood at 23.6%.
For the compound `O=C(NC[C@H]1O[C@@H](n2ccc(=O)[nH]c2=O)[C@H](O)[C@@H]1O)OC(c1cccc(Oc2ccccc2)c1)P(=O)(O)O` (stereo in doubt; 28a-(l)), the inhibition in experiment [1] was 28.2%.
As to `COc1ccc(C(OC(=O)NC[C@H]2O[C@@H](n3ccc(=O)[nH]c3=O)[C@H](O)[C@@H]2O)P(=O)(O)O)cc1` (stereo in doubt; 28g-(l)), the inhibition in experiment [1] is 7.1%.
For the compound `O=C(NC[C@H]1O[C@@H](n2ccc(=O)[nH]c2=O)[C@H](O)[C@@H]1O)OC(c1ccc(OC2CCCC2)cc1)P(=O)(O)O` (stereo in doubt; 28i-(s)), the inhibition in experiment [1] came out at 19%. In addition, in experiment [2], the Ratio turned out to be 0.7.
Take `O=C(NC[C@H]1O[C@@H](n2ccc(=O)[nH]c2=O)[C@H](O)[C@@H]1O)OC(c1ccc(OC2CCCC2)cc1)P(=O)(O)O` (stereo in doubt; 28i-(l)): the inhibition in experiment [1] came to 78%. Further, the Ratio in experiment [2] worked out at 3.2.
As for `O=C(NC[C@H]1O[C@@H](n2ccc(=O)[nH]c2=O)[C@H](O)[C@@H]1O)OC(c1ccc(F)c(Oc2ccccc2)c1)P(=O)(O)O` (stereo in doubt; 28b-(s)), the inhibition in experiment [1] is 1.1%.
Still for that read-out and setting: for `O=C(NC[C@H]1O[C@@H](n2ccc(=O)[nH]c2=O)[C@H](O)[C@@H]1O)OC(c1cc2ccccc2s1)P(=O)(O)O` (stereo in doubt; 28k-(l)) the value was 13.2%.
For the compound `O=C(NC[C@H]1O[C@@H](n2ccc(=O)[nH]c2=O)[C@H](O)[C@@H]1O)OC(c1cccc(F)c1)P(=O)(O)O` (stereo in doubt; 28d-(s)), the inhibition in experiment [1] is 36.6%. Also, in experiment [2], the Ratio turned out to be 1.9.
Regarding `COc1ccc(C(OC(=O)NC[C@H]2O[C@@H](n3ccc(=O)[nH]c3=O)[C@H](O)[C@@H]2O)P(=O)(O)O)cc1OC1CCCC1` (stereo in doubt; 28h-(l)), the inhibition in experiment [1] stood at 7.9%.
Regarding `O=C(NC[C@H]1O[C@@H](n2ccc(=O)[nH]c2=O)[C@H](O)[C@@H]1O)OC(c1cccc(F)c1)P(=O)(O)O` (stereo in doubt; 28d-(l)), the inhibition in experiment [1] came out at 18%.
Turning to `O=C(NC[C@H]1O[C@@H](n2ccc(=O)[nH]c2=O)[C@H](O)[C@@H]1O)OC(c1ccc(F)c(Oc2ccccc2)c1)P(=O)(O)O` (stereo in doubt; 28b-(l)), the inhibition in experiment [1] stood at 1.8%.
Turning to `O=C(NC[C@H]1O[C@@H](n2ccc(=O)[nH]c2=O)[C@H](O)[C@@H]1O)OC(c1csc2ccccc12)P(=O)(O)O` (stereo in doubt; 28l-(l)), the inhibition in experiment [1] stood at 6.9%.
Take `Nc1ccn([C@@H]2O[C@H](CNC(=O)OC(c3cccc(Oc4ccccc4)c3)P(=O)(O)O)[C@@H](O)[C@H]2O)c(=O)n1` (stereo in doubt; 30-(s)): the inhibition in experiment [1] was determined as 2.2%.
Turning to `O=C(NC[C@H]1O[C@@H](n2ccc(=O)[nH]c2=O)[C@H](O)[C@@H]1O)OC(c1ccc(F)cc1)P(=O)(O)O` (stereo in doubt; 28c-(s)), the inhibition in experiment [1] was determined as 34.6%. Besides, in experiment [2], the Ratio stood at 0.1.
With `O=C(NC[C@H]1O[C@@H](n2ccc(=O)[nH]c2=O)[C@H](O)[C@@H]1O)OC(c1ccc(F)cc1)P(=O)(O)O` (stereo in doubt; 28c-(l)), in experiment [1], the inhibition came out at 58.9%. Further, the Ratio in experiment [2] turned out to be 32.5.
Consider `COc1cccc(C(OC(=O)NC[C@H]2O[C@@H](n3ccc(=O)[nH]c3=O)[C@H](O)[C@@H]2O)P(=O)(O)O)c1` (stereo in doubt; 28f-(s)), for which the inhibition in experiment [1] amounted to 29.8%.

The record behind these values is ChEMBL document CHEMBL4725261, “Design, synthesis and evaluation of carbamate-linked uridyl-based inhibitors of human ST6Gal I” (Bioorg Med Chem, 2020).
